Results as given in patent publication US10421989B2, “Methods and reagents for riboswitch analysis” (CORNELL UNIVERSITY, priority 2014, dated 2019).
Several values for one entry are separate records, joined by “and”; a condition that tells them apart may be missing. Equal values may be shown once.

Legend:
[1] = molecular target: dye-labeled TPP riboswitch (WT/24-68); experiment: smFRET titration of TPP, high-FRET state occupancy; type: binding, E. coli; conditions: TPP 0 to 100 μM, 2 mM Mg2+; fit y=ymax(x/x+Kd); read-out: estimated Kd (apparent dissociation constant)
Experimental: FIG. 20. Former tpp The dye-labeled TPP riboswitch (WT/24-68) binds TPP with nanomolar affinity. The affinity of TPP for the WT/24-68 labeled construct was estimated by titrating TPP from 0 to 100 μM in the presence of 2 mM Mg^2+, and quantifying the change in population of fully folded riboswitch molecules (high-FRET state occupancy) as a function of TPP concentration using single-molecule FRET measurements. Shown (black squares) is the average high-FRET state occupancy value (total area under the curve) obtained by fitting population FRET histograms to three Gaussian distributions (low-, intermediate- and high-FRET) over three independent experiments. Each value was normalized to the percent high-FRET state occupancy observed at […]. […]
smFRET data were acquired using a prism-based total internal reflection microscope, where the biotinylated TPP riboswitch was surface immobilized within PEG-passivated, strepatividin-coated quartz microfluidic devices. {Dave R, et al 2009} The Cy3 fluorophore was directly illuminated under 1.5 kW cm^−2 intensity at 532 nm (Laser Quantum). […] Fluorescence data were acquired using MetaMorph acquisition software (Universal Imaging Corporation) at a rate of 66.7 frames per second (15 ms integration). Fluorescence trajectories were selected from the movie files for analysis using automated image analysis software coded in Matlab (The MathWorks). […]

[2] = molecular target: wild-type (A11AP) preQ1-II riboswitch aptamer construct; experiment: 2-aminopurine fluorescence titration of preQ1 binding, wild-type aptamer; set-up: species or system Streptococcus pneumoniae R6; conditions: 0.5 μM RNA, 50 mM KMOPS, 100 mM KCl, Mg2+, 25° C.; 2-aminopurine at position A11
Experimental: (§1) FIG. 10. A11/2-Aminopurine (A11AP) fluorescence measurements of WT and ΔP3 preQ1-II riboswitch variants. (a) Secondary structure of the WT/A11AP (left) and ΔP3/A11AP (right) preQ1-II variant. (b) Qualitative fluorescence response upon Mg^2+ (4 mM) and subsequent preQ1 addition (10 μM) (λex=308 nm; detection at 372 nm). (c) Fluorescence emission spectra (λex=308 nm) from 320 to 480 nm for each preQ1 concentration. (d) Normalized 2AP fluorescence intensity plotted as a function of preQ1 concentrations, changes in fluorescence (F-F0) were normalized to the maximum fluorescence measured in the absence of ligands. […]
(§2) Experiments were measured on a Cary Eclipse spectrophotometer (Varian) equipped with a peltier block and a magnetic stirring device. […] Spectra were recorded from 320 to 500 nm with excitation wavelength 308 nm and scan rate of 120 nm/min. The apparent binding constants KD were determined by following the increase in fluorescence after each titration step via integration of the area between 330 and 450 nm. Changes in fluorescence (F-F0) were normalized to the maximum fluorescence measured in the absence of ligand. Measurements for each titration step was repeated at least two times and the mean of the normalized fluorescence intensity was plotted against ligand concentration. The final KD value is the arithmetic mean, determined from two to three independent titration experiments.

[3] = molecular target: truncated (ΔP3/A11AP) preQ1-II riboswitch aptamer construct; experiment: 2-aminopurine fluorescence titration of preQ1 binding, truncated aptamer; set-up: species or system Streptococcus pneumoniae R6
Experimental: as §1, §2

Row | SMILES | Kd [1] | Kd [2] [µM] | Kd ([3]; 0.5 μM RNA, 50 mM KMOPS, 100 mM KCl, Mg2+, 25° C., 2-aminopurine at position A11) [µM] | decrease in affinity compared to the wild-type (A11AP) aptamer construct ([3]; truncated construct vs wild-type) [fold]
1 | Cc1ncc(C[n+]2csc(CCO[P@](=O)(O)OP(=O)(O)O)c2C)c(N)n1 [TPP, thiamine pyrophosphate] | ~0.1 µM and 0.115 µM | – | – | –
2 | NCC1C=Nc2nc(N)[nH]c(=O)c21 (stereo not shown) [preQ1, 7-aminomethyl-7-deazaguanine] | – | 0.43 ± 0.01 | 4.2 ± 0.1 | 10
